According to patent publication US9169254B2, “Spiroimidazolone derivative” (Chugai Seiyaku Kabushiki Kaisha, priority 2009, dated 2015):

Target: T1, human PTH1 receptor (Homo sapiens, UniProt Q03431)
T1 sequence (Q03431 27-593): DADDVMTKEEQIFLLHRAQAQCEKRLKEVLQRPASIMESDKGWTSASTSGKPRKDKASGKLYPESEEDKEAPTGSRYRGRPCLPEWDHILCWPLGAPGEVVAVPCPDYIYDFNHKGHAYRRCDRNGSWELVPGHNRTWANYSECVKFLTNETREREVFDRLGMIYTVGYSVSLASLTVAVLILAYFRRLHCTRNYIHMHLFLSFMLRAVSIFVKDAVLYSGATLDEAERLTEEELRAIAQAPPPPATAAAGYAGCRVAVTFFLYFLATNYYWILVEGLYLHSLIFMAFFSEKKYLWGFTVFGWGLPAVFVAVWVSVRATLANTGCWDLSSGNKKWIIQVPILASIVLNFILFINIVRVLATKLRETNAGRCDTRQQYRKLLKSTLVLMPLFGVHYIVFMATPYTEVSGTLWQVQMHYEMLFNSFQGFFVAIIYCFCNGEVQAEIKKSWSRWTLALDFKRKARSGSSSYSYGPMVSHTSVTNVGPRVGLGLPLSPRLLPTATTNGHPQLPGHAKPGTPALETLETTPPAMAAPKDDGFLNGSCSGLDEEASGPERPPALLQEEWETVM
Assay: In vitro cAMP signal activity in HKRK-B7 cells (LLC-PK1 cells overexpressing the human PTH1 receptor)
Format: cell-based
Conditions: HKRK-B7 cells; compound at 1×10^−3 M; […]; 0.1 µM

First: Cc1cc(C(=O)N2CCC(=O)CC2)cc(C)c1/C=C/S(=O)(=O)N1CCC2(CC1)N=C(c1ccc(F)c(C(F)(F)F)c1)NC2=O [Compound 972, 8-{(E)-2-[2,6-dimethyl-4-(4-oxo-piperidine-1-carbonyl)-phenyl]-ethenesulfonyl}-2-(4-fluoro-3-trifluoromethyl-phenyl)-1,3,8-triaza-spiro[4.5]dec-1-en-4-one]
Second: Cc1cc(C(=O)N2CCC(F)(CO)CC2)ccc1CCS(=O)(=O)N1CCC2(CC1)N=C([C@H]1CC[C@H](CC=C(F)F)CC1)NC2=O [Compound 973, 2-[4-(3,3-Difluoro-allyl)-cyclohexyl]-8-{2-[4-(4-fluoro-4-hydroxymethyl-piperidine-1-carbonyl)-2-methyl-phenyl}-ethanesulfonyl]-1,3,8-triaza-spiro[4.5]dec-1-en-4-one]
The “cAMP production activity (%)” value of the first is lower: 89% for the first, 112% for the second.

Same assay, conditions: HKRK-B7 cells; compound at 1×10^−3 M; cAMP produced as percentage of that produced by hPTH(1-34) at 100 nM

First: Cc1cc(C(=O)N2CC(O)C2)cc(C)c1CCS(=O)(=O)N1CCC2(CC1)N=C(c1cccc(OC(F)(F)F)c1)NC2=O [Compound 965, 8-{2-[4-(3-hydroxy-azetidine-1-carbonyl)-2,6-dimethyl-phenyl]-ethanesulfonyl}-2-(3-trifluoromethoxy-phenyl)-1,3,8-triaza-spiro[4.5]dec-1-en-4-one]
Second: Cc1cc(C(=O)N2CCC(CO)CC2)cc(C)c1CCS(=O)(=O)N1CCC2(CC1)N=C(c1cccc(OC(F)(F)F)c1)NC2=O [Compound 966, 8-{2-[4-(4-hydroxymethyl-piperidine-1-carbonyl)-2,6-dimethyl-phenyl]-ethanesulfonyl}-2-(3-trifluoromethoxy-phenyl)-1,3,8-triaza-spiro[4.5]dec-1-en-4-one]
The “cAMP production activity (%)” value of the first is higher: 115% for the first, 82% for the second.

Going from `Cc1cc(C(=O)N2CC3(COC3)C2)cc(C)c1/C=C/S(=O)(=O)N1CCC2(CC1)N=C(c1ccc(F)c(C(F)(F)F)c1)NC2=O` [Compound 967, 8-{(E)-2-[2,6-Dimethyl-4-(2-oxa-6-aza-spiro[3.3]heptane-6-carbonyl)-phenyl]-ethenesulfonyl}-2-(4-fluoro-3-trifluoromethyl-phenyl)-1,3,8-triaza-spiro[4.5]dec-1-en-4-one] to `Cc1cc(C(=O)N2CC(C)(O)C2)cc(C)c1/C=C/S(=O)(=O)N1CCC2(CC1)N=C(c1ccc(F)c(C(F)(F)F)c1)NC2=O` [Compound 970, 2-(4-fluoro-3-trifluoromethyl-phenyl)-8-{(E)-2-[4-(3-hydroxy-3-methyl-azetidine-1-carbonyl)-2,6-dimethyl-phenyl]-ethenesulfonyl}-1,3,8-triaza-spiro[4.5]dec-1-en-4-one], the “cAMP production activity (%)” value rises from 44% to 112%.

Going from `Cc1cc(C(=O)N2CCNC(=O)C2)cc(C)c1/C=C/S(=O)(=O)N1CCC2(CC1)N=C(c1ccc(F)c(C(F)(F)F)c1)NC2=O` [Compound 968, 8-{(E)-2-[2,6-Dimethyl-4-(3-oxo-piperazine-1-carbonyl)-phenyl]-ethenesulfonyl}-2-(4-fluoro-3-trifluoromethyl-phenyl)-1,3,8-triaza-spiro[4.5]dec-1-en-4-one] to `Cc1cc(C(=O)N2C[C@@H](C)N[C@@H](C)C2)cc(C)c1/C=C/S(=O)(=O)N1CCC2(CC1)N=C(c1ccc(F)c(C(F)(F)F)c1)NC2=O` [Compound 969, 8-{(E)-2-[4-((3R,5S)-3,5-dimethyl-piperazine-1-carbonyl)-2,6-dimethyl-phenyl]-ethenesulfonyl}-2-(4-fluoro-3-trifluoromethyl-phenyl)-1,3,8-triaza-spiro[4.5]dec-1-en-4-one], the “cAMP production activity (%)” value falls from 69% to 45%.

Compared with `Cc1cc(C(=O)N2CCC(O)(CO)CC2)cc(C)c1/C=C/S(=O)(=O)N1CCC2(CC1)N=C(c1ccc(F)c(C(F)(F)F)c1)NC2=O` [Compound 971, 2-(4-fluoro-3-trifluoromethyl-phenyl)-8-{(E)-2-[4-(4-hydroxy-4-hydroxymethyl-piperidine-1-carbonyl)-2,6-dimethyl-phenyl]-ethenesulfonyl}-1,3,8-triaza-spiro[4.5]dec-1-en-4-one], `Cc1cc(C(=O)N2CCC(O)(CF)CC2)ccc1CCS(=O)(=O)N1CCC2(CC1)N=C([C@H]1CC[C@H](CC=C(F)F)CC1)NC2=O` [Compound 974, 2-[4-(3,3-difluoro-allyl)-cyclohexyl]-8-{2-[4-(4-fluoromethyl-4-hydroxy-piperidine-1-carbonyl)-2-methyl-phenyl]-ethanesulfonyl}-1,3,8-triaza-spiro[4.5]dec-1-en-4-one] is higher in “cAMP production activity (%)” value: 83% for the first, 111% for the second.

First: CCC1CCC(C2=NC3(CCN(S(=O)(=O)CCc4ccc(C(=O)N5CCN(CCF)CC5)cc4C)CC3)C(=O)N2)CC1 (centres unmarked) [Compound 975, 2-(4-Ethyl-cyclohexyl)-8-(2-{4-[4-(2-fluoro-ethyl)-piperazine-1-carbonyl]-2-methyl-phenyl}-ethanesulfonyl)-1,3,8-triaza-spiro[4.5]dec-1-en-4-one]
Second: CCC1CCC(C2=NC3(CCN(S(=O)(=O)CCc4ccc(C(=O)N5CCN(C6COC6)CC5)cc4C)CC3)C(=O)N2)CC1 (centres unmarked) [Compound 976, 2-(4-ethyl-cyclohexyl)-8-{2-[2-methyl-4-(4-oxetan-3-yl-piperazine-1-carbonyl)-phenyl]-ethanesulfonyl}-1,3,8-triaza-spiro[4.5]dec-1-en-4-one]
The “cAMP production activity (%)” value of the first is higher: 74% for the first, 73% for the second.

Going from `CCCCCCCCCC1=NC2(CCN(S(=O)(=O)CCc3ccc(C(=O)N4CCCC4)cc3C)CC2)C(=O)N1` [Compound 977, 8-{2-[2-Methyl-4-(pyrrolidine-1-carbonyl)-phenyl]-ethanesulfonyl}-2-nonyl-1,3,8-triaza-spiro[4.5]dec-1-en-4-one] to `CCCCCCCCCC1=NC2(CCN(S(=O)(=O)CCc3ccc(C(=O)N4CCC4)cc3C)CC2)C(=O)N1` [Compound 978, 8-{2-[4-(azetidine-1-carbonyl)-2-methyl-phenyl]-ethanesulfonyl}-2-nonyl-1,3,8-triaza-spiro[4.5]dec-1-en-4-one], the “cAMP production activity (%)” value rises from 80% to 91%.

Compared with `CCCCCCCCCC1=NC2(CCN(S(=O)(=O)CCc3ccc(C(=O)N4CC[C@@H](O)C4)cc3C)CC2)C(=O)N1` [Compound 979, 8-{2-[4-((R)-3-hydroxy-pyrrolidine-1-carbonyl)-2-methyl-phenyl]-ethanesulfonyl}-2-nonyl-1,3,8-triaza-spiro[4.5]dec-1-en-4-one], `CCCCCCCCCC1=NC2(CCN(S(=O)(=O)CCc3c(C)cc(C(=O)N4CC[C@@H](O)C4)cc3C)CC2)C(=O)N1` [Compound 981, 8-{2-[4-((R)-3-hydroxy-pyrrolidine-1-carbonyl)-2,6-dimethyl-phenyl]-ethanesulfonyl}-2-nonyl-1,3,8-triaza-spiro[4.5]dec-1-en-4-one] is lower in “cAMP production activity (%)” value: 145% for the first, 106% for the second.

Compared with `CCCCCCCCCC1=NC2(CCN(S(=O)(=O)CCc3c(C)cc(C(=O)N4CCCC4)cc3C)CC2)C(=O)N1` [Compound 980, 8-{2-[2,6-Dimethyl-4-(pyrrolidine-1-carbonyl)-phenyl]-ethanesulfonyl}-2-nonyl-1,3,8-triaza-spiro[4.5]dec-1-en-4-one], `CCCCCCCCCC1=NC2(CCN(S(=O)(=O)CCc3c(C)cc(C(=O)N4CCCCC4)cc3C)CC2)C(=O)N1` [Compound 983, 8-{2-[2,6-dimethyl-4-(piperidine-1-carbonyl)-phenyl]-ethanesulfonyl}-2-nonyl-1,3,8-triaza-spiro[4.5]dec-1-en-4-one] is higher in “cAMP production activity (%)” value: 85% for the first, 91% for the second.

Going from `CCCCCCCCCC1=NC2(CCN(S(=O)(=O)CCc3c(C)cc(C(=O)N4CCC4)cc3C)CC2)C(=O)N1` [Compound 982, 8-{2-[4-(azetidine-1-carbonyl)-2,6-dimethyl-phenyl]-ethanesulfonyl}-2-nonyl-1,3,8-triaza-spiro[4.5]dec-1-en-4-one] to `CCCCCCCCCC1=NC2(CCN(S(=O)(=O)CCc3c(C)cc(C(=O)N4CCC(O)CC4)cc3C)CC2)C(=O)N1` [Compound 984, 8-{2-[4-(4-hydroxy-piperidine-1-carbonyl)-2,6-dimethyl-phenyl]-ethanesulfonyl}-2-nonyl-1,3,8-triaza-spiro[4.5]dec-1-en-4-one], the “cAMP production activity (%)” value rises from 96% to 133%.

First: CCCCCCCCCC1=NC2(CCN(S(=O)(=O)CCc3c(C)cc(C(=O)N4CC(O)C4)cc3C)CC2)C(=O)N1 [Compound 985, 8-{2-[4-(3-hydroxy-azetidine-1-carbonyl)-2,6-dimethyl-phenyl]-ethanesulfonyl}-2-nonyl-1,3,8-triaza-spiro[4.5]dec-1-en-4-one]
Second: CCCCCCCCCC1=NC2(CCN(S(=O)(=O)CCc3c(C)cc(C(=O)N4CCN(C)CC4)cc3C)CC2)C(=O)N1 [Compound 986, 8-{2-[2,6-dimethyl-4-(4-methyl-piperazine-1-carbonyl)-phenyl]-ethanesulfonyl}-2-nonyl-1,3,8-triaza-spiro[4.5]dec-1-en-4-one]
The “cAMP production activity (%)” value of the first is higher: 120% for the first, 96% for the second.

In the case of `CONC(=O)Cc1ccc(/C=C/S(=O)(=O)N2CCC3(CC2)N=C(C2CCC(C)CC2)NC3=O)c(C)c1` (centres unmarked) [Compound 988, N-methoxy-2-(3-methyl-4-{(E)-2-[2-(4-methyl-cyclohexyl)-4-oxo-1,3,8-triaza-spiro[4.5]dec-1-ene-8-sulfonyl]-vinyl}-phenyl)-acetamide], the “cAMP production activity (%)” value is reported as 50%.
